Results published in the NIST ThermoML archive (doi:10.1016/j.fluid.2013.01.026).
± gives the expanded uncertainty stated by the source.

Details: Crystal; Melting Point Apparatus

Compound	Normal melting temperature
O=c1cc(-c2ccc(O)c(O)c2)oc2cc(O)cc(O)c12 [5,7,3',4'-tetrahydroxyflavone]	337.38 ± 0.2 °C
C[C@@H]1O[C@@H](OC[C@H]2O[C@@H](Oc3c(-c4ccc(O)c(O)c4)oc4cc(O)cc(O)c4c3=O)[C@H](O)[C@@H](O)[C@@H]2O)[C@H](O)[C@H](O)[C@H]1O [rutin]	177.20 ± 0.2 °C
